Laboratory results taken from patent US7741445B2, “Breast cancer resistance protein (BCRP) antibodies” (University of Maryland, Baltimore, priority 1998, dated 2010).
“Also recorded” adds a separate entry of the source.

How the values were obtained:
MCF-7/AdrVp cells = conditions: MCF-7/AdrVp vs MCF-7; cited from earlier work
MCF-7/AdrVp = conditions: subline selected with doxorubicin in the presence of verapamil; cited from earlier work
[1] = test system: BCRP-overexpressing clones 6 and 8 (MCF-7 cells transfected with pcDNA3-BCRP); test: Daunorubicin accumulation and retention by flow cytometry; assay type: cell-based, human
Protocol: (§1) The full-length BCRP cDNA was inserted into the multiple to cloning site of expression vector pcDNA3 (Invitrogen). Following subcloning of the pcDNA3-BCRP construct, DNA sequence analysis was performed to confirm that the insert in the clone that was chosen was in a sense orientation to the CMV promoter of the pcDNA3 vector. MCF-7 cells were transfected with pcDNA3-BCRP, using the calcium phosphate precipitation method (17), selected by culture with geneticin (G418, 1 mg/ml), then subclone by limiting dilution in 96 well flat-bottomed culture plates. Subclones were tested for expression of BCRP mRNA by Northern blot analysis, using radiolabeled Clone 8 cDNA as a probe (FIG. 4A). As a control, MCF-7 cells were also transfected with the empty pcDNA3 vector, then selected by growth in medium containing 1 mg/ml G418 (FIG. 4A).
Daunorubicin accumulation and retention was examined in the transfected cells by means of flow cytometry.

EPG85-257RDB = conditions: gastric; cited from earlier work
EPP85-181RDB = conditions: pancreatic; cited from earlier work
[2] = test system: MCF-7/BCRP transfectant clones 6 and 8; test: Sulforhodamine-B (SRB) cytotoxicity assay; assay type: cell-based, human; conditions: compared to clone 19, MCF-7 cells or empty vector-transfected controls
Protocol: as §1
The sensitivities of the various transfected sublines to chemotherapeutic agents were tested by the sulforhodamine-B (SRB) cytotoxicity assay (14). The LC50, defined as the concentration of drug that caused lethality to 50% of the cells, was calculated. From this, the “Fold of Resistance” (RF) was calculated by dividing the LC50 for a given drug against a transfected cell line by the LC50 of that drug against non-transfected MCF-7 cells. […] FIG. 5 contains the median LC50 values for multiple cytotoxicity experiments for all cell lines and drugs tested. […] The asterisk and solid line in FIG. 4D indicate MCF-7/W cells, the closed squares and dotted lines represent MCF-7/pcDNA3-BCRP clone 8 cells. The vertical bars in the figure represent the standard deviation of six replicate determinations.

HT29RNOV = conditions: colon; cited from earlier work
EPG85-257RNOV = conditions: gastric; cited from earlier work
H209/MX2 = conditions: H209/MX2, small cell lung; cited from earlier work
MCF-7/Mitox = conditions: breast; cited from earlier work
HL-60/MX2 = conditions: HL-60/MX2, leukemia; cited from earlier work
MCF-7/MXPR = conditions: breast; cited from earlier work
8226/MR20 = conditions: 8226/MR20, myeloma; cited from earlier work
MCF-7/MXRS250 = conditions: MCF-7/MXRS250, breast; cited from earlier work
MCF-7/MXRS600 = conditions: MCF-7/MXRS600, breast; cited from earlier work
EPF86-079RNOV = conditions: fibrosarcoma; cited from earlier work
H209/MX4 = conditions: H209/MX4, small cell lung; cited from earlier work
MDA-MB-231RNOV = conditions: breast; cited from earlier work
EPP85-181RNOV = conditions: pancreatic; cited from earlier work
S1M1-3.2 = conditions: S1M1-3.2, colon; cited from earlier work
[3] = test system: cells that overexpress Pgp or MRP; conditions: cited from earlier work
[4] = test system: BCRP-transfected MCF-7 cells; test: FTC effects on BBR3390 accumulation and retention, flow cytometry; assay type: cell-based, human; conditions: 10 uM FTC
Protocol: MCF-7 cells transfected with either the pcDNA3 empty vector or pcDNA3 containing the full-length BCRP cDNA (transfectant clone 8) were cultured as monolayers in tissue culture flasks. The effects of FTC on the accumulation of the aza-anthrapyrazole BBR3390 were measured by exposing these cells to the fluorescent aza-anthrapyrazole BBR3390 (5 uM) in the presence or absence of 10 uM FTC for 60 minutes. Then, the cells were removed from the flasks by trypsinization, and intracellular BBR3390 content was measured by flow cytometry. The effects of FTC on BBR3390 retention were measured by exposing another set of cells (vector control and transfectant clone 8) to 5 uM BBR3390 with and without 10 uM FTC for 60 minutes, washing the cells free of drug, then reincubating the cells for an additional 30 minutes in fresh medium with and without FTC. Intracellular BBR3390 content was measured by flow cytometry. (See FIG. 10).

H69/AR = conditions: small cell lung; cited from earlier work
MCF-7/Adr = conditions: breast; cited from earlier work
MCF-7/VP = conditions: breast; cited from earlier work
H209/V6 = conditions: H209/V6, small cell lung; cited from earlier work
MCF-7/MTX = conditions: breast; cited from earlier work

In the case of rhodamine 123, the “intracellular accumulation compared to MCF-7 cells” value (MCF-7/AdrVp cells) is given as “marked reduction”.

For COc1cccc2c1C(=O)c1c(O)c3c(c(O)c1C2=O)C[C@@](O)(C(C)=O)C[C@@H]3O[C@H]1C[C@H](N)[C@H](O)[C@H](C)O1 [daunorubicin], the “cross-resistance of MCF-7/AdrVp subline” value (MCF-7/AdrVp) is given as “marked cross-resistance”, the “intracellular steady-state concentration of drug, of that attained in the vector control cells” value ([1]; MCF-7/BCRP clone 6 vs pcDNA3 vector control cells) is given as about 50% and the “intracellular steady-state concentration of drug, of that attained in the vector control cells” value ([1]; MCF-7/BCRP clone 8 vs pcDNA3 vector control cells) is given as “approximately 30%”. The “Fold resistance to selecting agent” value (EPG85-257RDB) was 1,857 fold, the “intracellular accumulation compared to MCF-7 cells” value (MCF-7/AdrVp cells) was “marked reduction” and the “Fold resistance to selecting agent” value (EPP85-181RDB) was 846 fold. For the same molecule, the “resistance / sensitivity of BCRP-overexpressing clones 6 and 8 to chemotherapeutic agent” value (“resistance / sensitivity” below) [2] was “displayed resistance”.

In the case of O=C1c2c(O)ccc(O)c2C(=O)c2c(NCCNCCO)ccc(NCCNCCO)c21 [mitoxantrone], the “Fold resistance to selecting agent” value (HT29RNOV) is given as 100 fold, the “Fold resistance to selecting agent” value (EPG85-257RNOV) is given as 457 fold and the “Fold resistance to selecting agent” value (H209/MX2) is given as 2 fold. For the same molecule, the “Fold resistance to selecting agent” value (MCF-7/Mitox) was 1,206 fold, the “cross-resistance of MCF-7/AdrVp subline” value (MCF-7/AdrVp) was “marked cross-resistance” and the “Fold resistance to selecting agent” value (HL-60/MX2) was 35 fold. The “Fold resistance to selecting agent” value (MCF-7/MXPR) was 270 fold, the “Fold resistance to selecting agent” value (8226/MR20) was 36 fold and the “Fold resistance to selecting agent” value (MCF-7/MXRS250) was 4,600 fold. For the same molecule, the “Fold resistance to selecting agent” value (MCF-7/MXRS600) was 7,450 fold, the “Fold resistance to selecting agent” value (EPF86-079RNOV) was 7 fold and the “Fold resistance to selecting agent” value (H209/MX4) was 4 fold. The “resistance / sensitivity” value [2] was “displayed resistance; also recorded: greatest degree of resistance”, the “Fold resistance to selecting agent” value (MDA-MB-231RNOV) was 93 fold and the “Fold resistance to selecting agent” value (EPP85-181RNOV) was 27 fold. The “Fold resistance to selecting agent” value (S1M1-3.2) was 1,435 fold.

In the case of COc1ccc2c3c([nH]c2c1)[C@H](C=C(C)C)N1C(=O)[C@@H]2CCCN2C(=O)[C@@H]1C3 [FTC, Fumitremorgin C], the reversal of resistance [3] is listed as “does not reverse resistance”, the “effect on accumulation of BBR 3390” value ([4]; 5 uM BBR3390, 60 minutes) is listed as “able to enhance the accumulation” and the “effect on efflux of BBR 3390” value ([4]; 5 uM BBR3390, 60 minutes then 30 minutes in fresh medium) is listed as “inhibit the efflux”.

In the case of COc1cccc2c1C(=O)c1c(O)c3c(c(O)c1C2=O)CC(O)(C(=O)CO)CC3OC1CC(N2CCOCC2C#N)C(O)C(C)O1 (stereo not shown) [3′-deamino-3′[3-cyano-4-morpholinyl]doxorubicin], the “cross-resistance of MCF-7/AdrVp subline” value (MCF-7/AdrVp) is given as “marked cross-resistance”.

In the case of COc1cccc2c1C(=O)c1c(O)c3c(c(O)c1C2=O)C[C@@](O)(C(=O)CO)C[C@@H]3O[C@H]1C[C@H](N)[C@H](O)[C@H](C)O1 [doxorubicin], the “Fold resistance to selecting agent” value (H69/AR) is given as 100 fold, the “resistance / sensitivity” value [2] is given as “displayed resistance” and the “Fold resistance to selecting agent” value (MCF-7/Adr) is given as 192 fold.

In the case of COc1cc([C@@H]2c3cc4c(cc3[C@@H](O[C@@H]3O[C@@H]5CO[C@@H](C)O[C@H]5[C@H](O)[C@H]3O)[C@H]3COC(=O)[C@H]23)OCO4)cc(OC)c1O [etoposide], the “Fold resistance to selecting agent” value (MCF-7/VP) is given as 26 fold and the “Fold resistance to selecting agent” value (H209/V6) is given as 22 fold.

For N.N.[Cl][Pt][Cl] [cisplatin], the “cross-resistance of MCF-7/AdrVp subline” value (MCF-7/AdrVp) is listed as “remains sensitive” and the “resistance / sensitivity” value [2] is listed as “remained relatively sensitive”.

In the case of CC(=O)O[C@H]1C(=O)[C@@]2(C)[C@H]([C@H](OC(=O)c3ccccc3)[C@]3(O)C[C@H](OC(=O)[C@H](O)[C@@H](NC(=O)c4ccccc4)c4ccccc4)C(C)=C1C3(C)C)[C@]1(OC(C)=O)CO[C@@H]1C[C@@H]2O [paclitaxel], the “cross-resistance of MCF-7/AdrVp subline” value (MCF-7/AdrVp) is given as “remains sensitive” and the “resistance / sensitivity” value [2] is given as “remained relatively sensitive”.

In the case of CN(Cc1cnc2nc(N)nc(N)c2n1)c1ccc(C(=O)N[C@@H](CCC(=O)O)C(=O)O)cc1 [methotrexate], the “Fold resistance to selecting agent” value (MCF-7/MTX) is given as 1,000 fold.

In the case of CC(=O)[C@]1(O)Cc2c(O)c3c(c(O)c2[C@@H](O[C@H]2C[C@H](N)[C@H](O)[C@H](C)O2)C1)C(=O)c1ccccc1C3=O [idarubicin], the “cross-resistance of MCF-7/AdrVp subline” value (MCF-7/AdrVp) is given as “not” and the “resistance / sensitivity” value [2] is given as “remained relatively sensitive”.
